≈ marks a conversion by molar mass, not a printed value. Where two headings read alike, the source gives them in different places.
How the values were obtained:
E. coli strain SQ110DTC [1] = assay: Selection of FSA-513018b resistant mutants in SQ110DTC; type: cell-based; conditions: SQ110DTC plated on agar containing FSA-513018b
Description: […]. […] Approximately 20 colonies appeared on both plates after incubation at 37° C. for 24 h. The segment of the 23S rRNA gene corresponding to domains V and VI of the 23S rRNA was PCR-amplified from 14 randomly selected colonies using the primers 2020R (CCCGAGACTCAGTGAAATTGAACTC) and L2904 (AAG GTT AAG CCT CAC GG). PCR products were sequenced using the primer L2667 (GGTCCTCTCGTACTAGGAGCAG).

E. coli strain SQ110DTC [2] = assay: MIC in LB medium against E. coli SQ110DTC and its FSA-513018b-resistant mutants (Table 14); type: cell-based; conditions: Escherichia coli
E. faecalis VRE [3] = assay: MIC (CLSI), second E. faecalis VRE line of Table 4; type: cell-based; conditions: Enterococcus faecalis; E. faecalis VRE (Table 4, second VRE line); read-out: MIC
Description: (§1) Minimum inhibitory concentrations (MICs) were determined by broth microdilution method or agar dilution method following the Clinical and Laboratory Standards Institute guidelines. Standard bacterial strains were obtained from American Type Culture Collection (ATCC). Other bacterial strains were obtained from hospitals and commercial sources, so noted in Table 11. Before the start of the MIC experiment, standard and test compound stock solutions were prepared in dimethyl sulfoxide (DMSO, Aldrich D2650) at a stock concentration of 5,120 μg/mL. The compound concentration range typically employed for each experiment was 128-0.06 μg/mL (2.5% final DMSO concentration). Clindamycin was used as a comparator in all experiments and each experiment was performed in triplicate. Specialized procedures were employed for streptococcal and anaerobic strains. All other bacterial strains were sub-cultured on blood agar plates (tryptic soy agar with 5% sheep blood, Hardy Diagnostics) and incubated overnight at 35° C. Organisms were suspended in cation-adjusted Mueller-Hinton broth (CaMHB, BD 212322) and optical density was adjusted to 0.5 McFarland standard. Suspensions were further diluted to obtain a final inoculum of 5×10^5 CFU/mL for broth microdilution experiments.

C. difficile ATCC 700057 = assay: MIC (broth microdilution or agar dilution, CLSI); type: cell-based
Summary of the method: (§2)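 Triplicate CLSI determinations by broth or agar dilution, compound at 128-0.06 μg/mL in 2.5% DMSO; special handling for anaerobes. Broth microdilution used 5×10^5 CFU/mL inocula in cation-adjusted Mueller-Hinton broth.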

S. aureus MRSA = assay: MIC (broth microdilution or agar dilution, CLSI); type: cell-based; conditions: Staphylococcus aureus
Summary of the method: as §2

S. aureus cErmA = assay: MIC (broth microdilution or agar dilution, CLSI); type: cell-based; conditions: Staphylococcus aureus; S. aureus cErmA; read-out: MIC
Summary of the method: as §2

B. fragilis ATCC 25285 = assay: MIC (broth microdilution or agar dilution, CLSI); type: cell-based; conditions: Bacteroides fragilis, read-out: MIC
Summary of the method: as §2

E. faecium VRE = assay: MIC (broth microdilution or agar dilution, CLSI); type: cell-based; conditions: Enterococcus faecium; E. faecium VRE; read-out: MIC
Summary of the method: as §2

[4] = tested on: E. coli MP-74 LptD mutant; assay: MIC (broth microdilution or agar dilution, CLSI); type: cell-based; conditions: Escherichia coli
Summary of the method: as §2

E. faecium Line R & VRE = assay: MIC (broth microdilution or agar dilution, CLSI); type: cell-based; conditions: Enterococcus faecium, read-out: MIC
Summary of the method: as §2

P. aeruginosa ΔAmex OprM = assay: MIC (broth microdilution or agar dilution, CLSI); type: cell-based
Summary of the method: as §2

E. faecium Clinical VRE = assay: MIC (broth microdilution or agar dilution, CLSI); type: cell-based; conditions: Enterococcus faecium; E. faecium Clinical VRE; read-out: MIC
Summary of the method: as §2

C. scindens ATCC 35704 = assay: MIC (broth microdilution or agar dilution, CLSI); type: cell-based
Summary of the method: as §2

P. aeruginosa ATCC 27853 = assay: MIC (broth microdilution or agar dilution, CLSI); type: cell-based
Summary of the method: as §2

H. influenzae ATCC 49247 = assay: MIC (broth microdilution or agar dilution, CLSI); type: cell-based
Summary of the method: (§3)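 Per CLSI, MICs by broth microdilution or agar dilution; strains other than streptococci and anaerobes were sub-cultured overnight at 35° C on blood agar, with a final broth inoculum of 5×10^5 CFU/mL.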

A. baumannii ATCC 19606 = assay: MIC (broth microdilution or agar dilution, CLSI); type: cell-based
Summary of the method: as §3

Escherichia coli c-ermB = assay: MIC, clinically derived E. coli with acquired resistance; type: cell-based
Description: as §1

E. faecalis VRE [5] = assay: MIC (CLSI), third E. faecalis VRE line of Table 4; type: cell-based; conditions: Enterococcus faecalis; E. faecalis VRE (Table 4, third VRE line); read-out: MIC
Description: as §1

S. aureus MP-549 msrA = assay: microbe, parasite or virus in culture; type: cell-based; conditions: Staphylococcus aureus, MP549MSRA
Summary of the method: as §3

S. aureus BAA 977 iErmA = assay: microbe, parasite or virus in culture; type: cell-based; conditions: Staphylococcus aureus
Summary of the method: as §3

E. coli ΔTolC = assay: microbe, parasite or virus in culture; type: cell-based; conditions: Escherichia coli
Summary of the method: as §3

S. aureus (MRSA) = assay: Murine neutropenic thigh infection model; conditions: neutropenic mouse thigh, 24 h after a single intraperitoneal dose of 60 mg/kg
Description: Animal studies: Animal experiments were performed at the Biology Research Infrastructure Laboratory of Harvard University following IACUC-approved protocols. Animals were maintained in accordance with National Research Council guidelines. Pathogen-free, 5-6-week-old, female CD-1 mice weighing 22-26 grams were obtained from Charles River Laboratories, Inc. (Kingston, N.Y.). Animals were acclimated for a minimum of three days prior to start of the studies. Mice were caged as a group of four per cage, were housed at 21-23° C. with humidity ranging from 30-70%, were exposed to 12-hour light and dark cycles, and were supplied with food and water ad libitum.
Mouse thigh infection studies: Mice were rendered neutropenic by administering cyclophosphamide intraperitoneally, 150 mg/kg four days prior, and 100 mg/kg one day prior to infection. Bacterial strains were cultured overnight on blood agar plates at 35° C. in 5% CO2. […] Homogenates were serially diluted and plated on blood agar plates (each sample was plated in duplicate), and bacterial counts (log10 CFU/thigh) were determined after incubating the plates overnight at 35° C. in 5% CO2. Each experiment was repeated twice, and mean values were calculated (n=4 mice per time point).

## CSC1O[C@H]([C@H](NC(=O)[C@H]2NC[C@@H]3C[C@H](CC(C)C)CCO[C@H]32)[C@H](C)Cl)C(O)[C@@H](O)[C@H]1O (stereo partly shown) [FSA-513018b]
E. coli strain SQ110DTC [1]
  frequency of resistant clones: ~10^−8
E. coli strain SQ110DTC [2]; E. coli SQ110DTC, WT
  MIC: 0.03 µg/mL (≈ 0.0606 µM)
E. coli strain SQ110DTC [2]; clone SA-3R1, mutation 2058G, selection plate 1 μg/mL FSA-513018b
  MIC: 4 µg/mL (≈ 8.08 µM)
E. coli strain SQ110DTC [2]; clone SA-3R2, mutation 2059G, selection plate […] FSA-513018b
  MIC: 2 µg/mL (≈ 4.04 µM)
E. coli strain SQ110DTC [2]; clone SA-3R9, mutation 2058G, selection plate […] FSA-513018b
  MIC: 4 µg/mL (≈ 8.08 µM)
E. coli strain SQ110DTC [2]; clone SA-3R13, mutation 2059G, selection plate 1 μg/mL FSA-513018b
  MIC: 2 µg/mL (≈ 4.04 µM)
E. coli strain SQ110DTC [2]; read-out: MICs of resistant clones, SQ110DTC clones selected on agar containing FSA-513018b (A2058G or A2059G in 23S rRNA)
  MIC: 2 to 4 µg/mL (≈ 4.04 to 8.08 µM)
E. faecalis VRE [3]
  MIC: 1 µg/mL (≈ 2.02 µM)
C. difficile ATCC 700057; C. difficile HAV#011, ATCC 700057
  MIC: 0.25 µg/mL (≈ 0.505 µM)
C. difficile ATCC 700057; Clostridioides difficile, ATCC700057, C. difficile ATCC 700057, read-out: MIC
  MIC: 0.25 µg/mL (≈ 0.505 µM)
S. aureus MRSA
  MIC: 0.06 µg/mL (≈ 0.121 µM)
S. aureus cErmA
  MIC: 4 µg/mL (≈ 8.08 µM)
B. fragilis ATCC 25285; ATCC25285, B. fragilis ATCC 25285
  MIC: 0.5 µg/mL (≈ 1.01 µM)
B. fragilis ATCC 25285; ATCC25285, B. fragilis HAV#013, ATCC 25285
  MIC: 0.5 µg/mL (≈ 1.01 µM)
E. faecium VRE
  MIC: 1 µg/mL (≈ 2.02 µM)
[4]
  MIC: 1 µg/mL (≈ 2.02 µM)
E. faecium Line R & VRE; E. faecium HAV#319, Line R & Vanco R
  MIC: ≤ 0.06 µg/mL
E. faecium Line R & VRE; E. faecium Line R & VRE
  MIC: 0.06 µg/mL (≈ 0.121 µM)
P. aeruginosa ΔAmex OprM; P. aeruginosa HAV#039, ΔAmex OprM
  MIC: 4 µg/mL (≈ 8.08 µM)
P. aeruginosa ΔAmex OprM; Pseudomonas aeruginosa
  MIC: 4 µg/mL (≈ 8.08 µM)
E. faecium Clinical VRE
  MIC: 1 µg/mL (≈ 2.02 µM)
C. scindens ATCC 35704; C. scindens HAV#012, ATCC 35704
  MIC: 0.125 µg/mL (≈ 0.252 µM)
C. scindens ATCC 35704; [Clostridium] scindens, ATCC35704, C. scindens ATCC 35704, read-out: MIC
  MIC: 0.125 µg/mL (≈ 0.252 µM)
P. aeruginosa ATCC 27853; P. aeruginosa HAV#009, ATCC 27853
  MIC: 128 µg/mL (≈ 259 µM)
P. aeruginosa ATCC 27853; Pseudomonas aeruginosa, ATCC27853, P. aeruginosa ATCC 27853, read-out: MIC
  MIC: 128 µg/mL (≈ 259 µM)
H. influenzae ATCC 49247; H. influenzae HAV#007, ATCC 49247
  MIC: 1 µg/mL (≈ 2.02 µM)
H. influenzae ATCC 49247; Haemophilus influenzae, ATCC49247, H. influenzae ATCC 49247, read-out: MIC
  MIC: 1 µg/mL (≈ 2.02 µM)
A. baumannii ATCC 19606; A. baumanii HAV#010, ATCC 19606
  MIC: 4 µg/mL (≈ 8.08 µM)
A. baumannii ATCC 19606; Acinetobacter baumannii, ATCC19606, A. baumannii ATCC 19606, read-out: MIC
  MIC: 4 µg/mL (≈ 8.08 µM)
Escherichia coli c-ermB; E. coli HAV#504, Clinical, cErmB
  MIC: 8 µg/mL (≈ 16.2 µM)
Escherichia coli c-ermB; Escherichia coli
  MIC: 8 µg/mL (≈ 16.2 µM)
E. faecalis VRE [5]
  MIC: 1 µg/mL (≈ 2.02 µM)
S. aureus MP-549 msrA; S. aureus MP-549 msrA
  MIC: ≤ 0.06 µg/mL
S. aureus MP-549 msrA; S. aureus HAV#032, MP-549, MSR(A)
  MIC: 0.06 µg/mL (≈ 0.121 µM)
S. aureus BAA 977 iErmA; BAA977
  MIC: ≤ 0.06 µg/mL
S. aureus BAA 977 iErmA; BAA-977 / MRSA
  MIC: 0.06 µg/mL (≈ 0.121 µM)
S. aureus BAA 977 iErmA; BAA-977 / MRSA, 24 h
  MIC: 2 µg/mL (≈ 4.04 µM)
E. coli ΔTolC; E. coli HAV#038, ΔTolC
  MIC: 0.5 µg/mL (≈ 1.01 µM)
E. coli ΔTolC; E. coli ΔTolC
  MIC: 0.5 µg/mL (≈ 1.01 µM)
S. aureus (MRSA)
  reduction in bacterial burden vs clindamycin- and vehicle-treated controls: statistically significant reductions

From patent publication US20230203081A1, “LINCOSAMIDE ANTIBIOTICS AND USES THEREOF” (President and Fellows of Harvard College, priority 2020, published 2023)
